A word on the GI50: it is the concentration that inhibits growth by half. A word on the inhibition: it is how much of the control response was suppressed. Low readings indicate a response near the control, high ones a response far below the control.

Consider 11 molecules from patent US20100298402A1, “STILBENE DERIVATIVES AS PSTAT3/IL-6 INHIBITORS” (ORCHID RESEARCH LABORATORIES LIMITED, priority 2007, published 2010).

The test system of experiment [1] is HCT 116 (colon), NCIH460 (lung) and U251 (glioma) cell lines. Nature of the experiment: Anti-cancer screen (MTT growth inhibition, 48 hours).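 Note: mean GI50 across the three cell lines.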 The experiment is classed as cell-based. Particulars: Homo sapiens; HCT 116, NCIH460 and U251 cell lines; MTT after 48 hours of incubation. As for the experimental part: The experimental drugs were screened for anti-cancer activity in three cell lines using five concentrations for each compound. The cell lines—HCT 116 (colon), NCIH460 (lung) and U251 (glioma) were maintained in DMEM containing 10% fetal bovine serum. 96-well microtiter plates are inoculated with cells in 100 μL of cell suspension (5×10^4 cells/mL) for 24 hours at 37° C., 5% CO2, 95% air and 100% relative humidity. A separate plate with these cell lines is also inoculated to determine cell viability before the addition of the compounds (T0)
Following 24-hour incubation, test compounds were added to the 96 well plates. Each plate contains one of the above cell lines and the following samples in triplicate: five different dilutions (0.01, 0.1, 1, 10 and 100 μM) of four test compounds, appropriate dilutions of a cytotoxic standard and growth medium (untreated) wells. Test compounds were dissolved in DMSO to prepare 20 mM stock solutions on the day of drug addition and serial dilutions were carried out in complete growth medium at 2× strength, such that 100 μL added to the wells gave final concentrations (0.01, 0.1, 1, 10 and 100 μM) in the well. SAHA was used as the standard drug in these experiments.
For T0 measurement, 24 hours after seeding the cells, 20 μL of 3-(4,5-dimethyl-2-thiazolyl)-2,5-diphenyl-2H-tetrazolium (MTT) solution per well was added to the ‘T0’ plate and incubated for 3 hours at 37° C. in a CO2 incubator. The plate containing cells and test compounds was treated similarly after 48 hours of incubation. After 3 hours of MTT addition, well contents were aspirated carefully followed by addition of 150 μL DMSO per well. Plates were agitated to ensure dissolution of the formazan crystals in DMSO and absorbance was read at 570 nm (A570).
Percent growth (PG) is calculated relative to the control and zero measurement wells (T0) as follows:
PG values are plotted against drug concentration to derive the following: GI50 is the concentration required to decrease PG by 50% vs control; TGI is the concentration required to decrease PG by 100% vs control and LC50 is the concentration required to decrease PG by 50% vs T0. (Mosmann T. Rapid colorimetric assay for cellular growth and survival: application to proliferation and cytotoxicity assays. (J. Immunol. Methods. 1983, 65 (1-2), 55-63; Anne Monks et al); feasibility of high-flux anticancer drug screen using a diverse panel of cultured human tumor cell lines”. (JNCI, Vol. 83, No. 11, 1991). Results for growth inhibition of synthesized compounds are given in Table-1.

Experiment [2] deals with IL-6 in supernatant of NCIH 460 cells. The experiment in a line: Measuring IL-6 in culture supernatants (ELISA). It counts as cell-based. Particulars: Homo sapiens, NCI-H460, 5 hours incubation. (In an ELISA, binding on a coated surface is turned into a signal by an enzyme label.)

In experiment [1], `COC(=O)/C(=C/c1ccc(F)c(OC)c1)c1ccc(OCC(O)CNCc2ccc(OC)cc2OC)cc1` (stereo not shown) [Example 9, 2-{4-[3-(2,4-Dimethoxybenzylamino)-2-hydroxypropoxyl]phenyl}-3-(4-fluoro-3-methoxyphenyl)acrylic acid methyl ester] displayed a GI50 greater than 100 µM. The same molecule returned an inhibition at 10 µM in experiment [2] of 34%.
In the case of `COC(=O)/C(=C/c1ccc(OCC(O)CNCc2ccc(OC)cc2OC)cc1)c1ccccc1` (stereo not shown) [Example 16, 3-{4-[3-(2,4-Dimethoxybenzylamino)-2-hydroxypropoxyl]phenyl}-2-phenyl acrylic acid methyl ester], the GI50 in experiment [1] came out at 3.1 µM. The same molecule came in with an inhibition at 10 µM in experiment [2] of 68%.
`COC(=O)/C(=C/c1ccc(F)c(C)c1)c1ccc(OCC(O)CNCc2ccccc2)cc1` (stereo not shown) [Example 21, 2-{4-[3-(Benzylamino)-2-hydroxypropoxy]phenyl}-3-(4-fluoro-3-methylphenyl)acrylic acid methyl ester] returned a 50% growth inhibitory concentration (GI50) in experiment [1] of 13.1 µM. In experiment [2], this molecule gave an inhibition at 10 µM of 22.8%.
In the same order, the values of `COC(=O)/C(=C/c1ccc(Cl)cc1)c1ccc(OCC(O)CNCc2ccccc2)cc1` (stereo not shown) [Example 27, 2-{4-[3-(Benzylamino)-2-hydroxypropoxy]phenyl}-3-(4-chlorophenyl)acrylic acid methyl ester] are 6.5 µM and 32.7%.
In the same order, the values of `COC(=O)/C(=C/c1ccc(F)cc1)c1ccc(OCC(O)CNCCOc2ccccc2OC)cc1` (stereo not shown) [Example 26, 2-{4-[3-(2-Methoxyphenoxyethylamino)-2-hydroxypropoxy]phenyl}-3-(4-fluorophenyl)acrylic acid methyl ester] are 12.1 µM and 36.2%.
In the same order, the values of `COC(=O)/C(=C/c1ccc(OCC(O)CNCCOc2ccccc2OC)cc1)c1cccs1` (stereo not shown) [Example 34, 3-{4-[3-(2-Methoxyphenoxyethylamino)-2-hydroxypropoxy]phenyl}-2-(thiophen-2-yl)acrylic acid methyl ester] are 18.7 µM and 41.9%.
On to `COC(=O)/C(=C/c1ccc(OC)cc1OC)c1ccc(OCC(O)CNCc2ccc(OC)cc2OC)cc1` (stereo not shown) [Example 32, 2-{4-[3-(2,4-Dimethoxybenzylamino)-2-hydroxypropoxy]phenyl}-3-(2,4-dimethoxyphenyl)acrylic acid methyl ester], for which the GI50 in experiment [1] is 0.6 µM. In experiment [2], the inhibition at 10 µM turned out to be 70.5%.
In the same order, the values of `COC(=O)/C(=C/c1ccc(SC)cc1)c1ccc(OCC(O)CNCc2ccc(OC)cc2OC)cc1` (stereo not shown) [Example 28, 2-{4-[3-(2,4-Dimethoxybenzylamino)-2-hydroxypropoxy]phenyl}-3-(4-(methylthio)phenyl)acrylic acid methyl ester] are 1.3 µM and 78.5%.
`COC(=O)/C(=C/c1ccc(F)c(OC)c1)c1ccc(OCC(O)CNCCOc2ccccc2OC)cc1` (stereo not shown) [Example 7, 2-{4-[3-(2-Methoxyphenoxyethylamino)-2-hydroxypropoxyl]phenyl}-3-(4-fluoro-3-methoxyphenyl)acrylic acid methyl ester]: the 50% growth inhibitory concentration (GI50) in experiment [1] stood at 2.2 µM. Also, 10 µM produced 58% inhibition in experiment [2].
In the same order, the values of `COC(=O)/C(=C/c1ccc(OCC(O)CNCc2ccc(OC)cc2OC)cc1)c1ccc(OC)cc1` (stereo not shown) [Example 12, 3-{4-[3-(2,4-Dimethoxybenzylamino)-2-hydroxypropoxyl]phenyl}-2-(4-methoxyphenyl)acrylic acid methyl ester] are 3 µM and 55%.
In the same order, the values of `COC(=O)/C(=C/c1ccc(OC)cc1OC)c1ccc(OCC(O)CNCCOc2ccccc2OC)cc1` (stereo not shown) [Example 33, 2-{4-[3-(2-Methoxyphenoxyethylamino)-2-hydroxypropoxy]phenyl}-3-(2,4-dimethoxyphenyl)acrylic acid methyl ester] are 2.6 µM and 61.2%.
